As a reminder, the IC50 is the concentration that gives 50% inhibition.

In this experiment the target is T1, human αVβ6 (Homo sapiens, UniProt P06756+P18564).
T1 construct: purchased R & D systems 3817-AV
The experiment can be described thus: human αVβ6 HTRF binding assay. The following applies: recombinant human αVβ6 integrin, FITC-conjugated fibronectin. The method, then:
All binding assays used the HTRF (homogeneous time resolved fluorescence) technology from Cisbio International, therefore all assays are described as HTRF binding assays. The assay results for the Examples are listed above together with the characterization data. The HTRF binding assays are established for the following integrins: human αVβ6, human αVβ1, human αVβ3, human αVβ5, and human αVβ8. All assays used the following assay buffer: 20 mM Tris, pH 7.4, 1 mM MgCl2, 1 mM MnCl2, 0.01% Tween 20, and 0.01% BSA. Alternatively, a SPA-based assay was used for evaluation of receptor binding.
The following describes the components and a representative procedure for the human αVβ6 HTRF binding assay: Recombinant human αVβ6 Integrin (R & D systems, 3817-AV) was biotinylated. Biotinylated human αVβ6 Integrin was added to assay vessel at a final concentration of 1.25 nM. FITC-conjugated fibronectin (Cytoskeleton, FNR02) was then added at the final concentration of 5 nM. The mixture was centrifuged at 600 rpm for three minutes using Thermo Fisher Heraeus Multifuge X3 centrifuge and then incubated at RT for an hour. Streptavidin Terbium (Cisbio international 610STLB) was then added at the final concentration of 0.625 nM. The resulting mixture was centrifuged at 600 rpm for three minutes using Thermo Fisher Heraeus Multifuge X3 centrifuge and then incubated at room temperature overnight in dark before reading HTRF signals.
On the technique in general: Time-resolved FRET reads energy transfer from a long-lived donor to a nearby acceptor.

Structures are written as SMILES.

T1 sequence (P06756 31-992 limits assumed): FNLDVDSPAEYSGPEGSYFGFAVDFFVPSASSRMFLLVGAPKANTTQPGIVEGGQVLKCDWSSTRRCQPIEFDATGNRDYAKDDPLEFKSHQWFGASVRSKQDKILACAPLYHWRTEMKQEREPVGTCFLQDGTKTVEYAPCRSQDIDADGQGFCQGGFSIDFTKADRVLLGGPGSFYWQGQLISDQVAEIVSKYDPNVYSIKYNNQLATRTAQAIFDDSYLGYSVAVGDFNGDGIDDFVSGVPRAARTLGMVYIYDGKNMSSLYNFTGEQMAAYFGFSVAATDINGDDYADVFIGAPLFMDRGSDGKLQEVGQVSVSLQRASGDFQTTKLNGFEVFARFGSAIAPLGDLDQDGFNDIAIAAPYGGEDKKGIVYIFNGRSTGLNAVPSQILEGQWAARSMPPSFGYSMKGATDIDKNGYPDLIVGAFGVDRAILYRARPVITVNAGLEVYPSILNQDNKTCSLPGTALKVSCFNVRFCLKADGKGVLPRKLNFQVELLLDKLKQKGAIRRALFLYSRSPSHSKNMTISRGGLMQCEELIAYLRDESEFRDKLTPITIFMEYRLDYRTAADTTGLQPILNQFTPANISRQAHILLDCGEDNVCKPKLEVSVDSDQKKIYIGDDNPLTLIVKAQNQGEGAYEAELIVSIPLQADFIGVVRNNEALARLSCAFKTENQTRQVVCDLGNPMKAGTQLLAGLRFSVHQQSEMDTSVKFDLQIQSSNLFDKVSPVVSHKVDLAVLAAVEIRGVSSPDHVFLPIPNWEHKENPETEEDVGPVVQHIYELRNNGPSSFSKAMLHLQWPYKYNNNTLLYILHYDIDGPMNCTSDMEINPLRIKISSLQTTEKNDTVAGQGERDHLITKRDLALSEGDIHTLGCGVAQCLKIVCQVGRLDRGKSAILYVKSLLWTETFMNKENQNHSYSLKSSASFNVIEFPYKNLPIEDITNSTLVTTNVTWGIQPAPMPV
T1 sequence (P18564 22-707 limits assumed): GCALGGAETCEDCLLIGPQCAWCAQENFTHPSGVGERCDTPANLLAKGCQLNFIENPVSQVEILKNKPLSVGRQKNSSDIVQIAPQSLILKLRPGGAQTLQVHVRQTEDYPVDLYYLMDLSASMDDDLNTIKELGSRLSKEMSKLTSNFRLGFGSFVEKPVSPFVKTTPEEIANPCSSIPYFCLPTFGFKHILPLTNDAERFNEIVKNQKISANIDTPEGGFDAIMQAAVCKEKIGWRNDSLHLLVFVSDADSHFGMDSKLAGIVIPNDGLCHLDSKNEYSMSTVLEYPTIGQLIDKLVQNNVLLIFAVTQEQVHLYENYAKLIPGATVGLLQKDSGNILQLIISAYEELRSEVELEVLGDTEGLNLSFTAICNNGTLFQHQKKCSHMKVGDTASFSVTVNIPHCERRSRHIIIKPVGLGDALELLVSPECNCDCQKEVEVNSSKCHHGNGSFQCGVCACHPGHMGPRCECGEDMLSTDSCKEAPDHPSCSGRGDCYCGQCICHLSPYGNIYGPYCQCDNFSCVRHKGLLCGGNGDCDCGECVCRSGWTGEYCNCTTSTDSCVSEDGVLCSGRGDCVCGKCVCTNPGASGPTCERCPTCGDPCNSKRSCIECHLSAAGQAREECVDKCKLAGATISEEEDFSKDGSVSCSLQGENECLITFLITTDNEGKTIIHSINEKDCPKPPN

Regarding `O=C(O)CC(c1cncc(N2CCOCC2)c1)n1ccc(CCCc2ccc3c(n2)NCCC3)n1` (single isomer, unassigned) [Example 67, 3-[5-(morpholin-4-yl)pyridin-3-yl]-3-{3-[3-(5,6,7,8-tetrahydro-1,8-naphthyridin-2-yl)propyl]-1H-pyrazol-1-yl}propanoic acid], the IC50 came to 210 nM.

For the molecule `O=C(O)CC(c1cncc(N2CCOCC2)c1)n1ccc(CCCc2ccc3c(n2)NCCC3)n1` (single isomer, unassigned) [Example 68, 3-[5-(morpholin-4-yl)pyridin-3-yl]-3-{3-[3-(5,6,7,8-tetrahydro-1,8-naphthyridin-2-yl)propyl]-1H-pyrazol-1-yl}propanoic acid], the IC50 worked out at 2.8 nM.

On to `Cc1cncc(C(CC(=O)O)n2ccc(CCCc3ccc4c(n3)NCCC4)n2)c1` (single isomer, unassigned) [Example 69, 3-(5-methylpyridin-3-yl)-3-{3-[3-(5,6,7,8-tetrahydro-1,8-naphthyridin-2-yl)propyl]-1H-pyrazol-1-yl}propanoic acid], for which the IC50 came out at 15 nM.

For the molecule `Cc1cncc(C(CC(=O)O)n2ccc(CCCc3ccc4c(n3)NCCC4)n2)c1` (single isomer, unassigned) [Example 70, 3-(5-methylpyridin-3-yl)-3-{3-[3-(5,6,7,8-tetrahydro-1,8-naphthyridin-2-yl)propyl]-1H-pyrazol-1-yl}propanoic acid], the IC50 was 4900 nM.

Take `COCCOc1cncc(C(CC(=O)O)n2ccc(CCCc3ccc4c(n3)NCCC4)n2)c1` (single isomer, unassigned) [Example 80, 3-(5-(2-methoxyethoxy)pyridin-3-yl)-3-(3-(3-(5,6,7,8-tetrahydro-1,8-naphthyridin-2-yl)propyl)-1H-pyrazol-1-yl)propanoic acid]: the IC50 came to 1.8 nM.

For `O=C(O)CC(c1cncc(N2CCOCC2)c1)n1nccc1CCCc1ccc2c(n1)NCCC2` (single isomer, unassigned) [Example 94, 3-(5-morpholinopyridin-3-yl)-3-(5-(3-(5,6,7,8-tetrahydro-1,8-naphthyridin-2-yl)propyl)-1H-pyrazol-1-yl)propanoic acid], the IC50 is 19 nM.

On to `O=C(O)CC(c1cncc(N2CCOCC2)c1)n1nccc1CCCc1ccc2c(n1)NCCC2` (single isomer, unassigned) [Example 95, 3-(5-morpholinopyridin-3-yl)-3-(5-(3-(5,6,7,8-tetrahydro-1,8-naphthyridin-2-yl)propyl)-1H-pyrazol-1-yl)propanoic acid], for which the IC50 was found to be 230 nM.

Consider `Cc1ncc(C(CC(=O)O)n2ccc(CCCc3ccc4c(n3)NCCCC4)n2)cn1` (single isomer, unassigned) [Example 97, 3-(2-methylpyrimidin-5-yl)-3-(3-(3-(6,7,8,9-tetrahydro-5H-pyrido[2,3-b]azepin-2-yl)propyl)-1H-pyrazol-1-yl)propanoic acid], for which the IC50 was found to be 45 nM.

For `COc1ccc(C(CC(=O)O)n2ccc(CCCc3ccc4c(n3)NCCCC4)n2)cn1` (single isomer, unassigned) [Example 101, 3-(6-methoxypyridin-3-yl)-3-(3-(3-(6,7,8,9-tetrahydro-5H-pyrido[2,3-b]azepin-2-yl)propyl)-1H-pyrazol-1-yl)propanoic acid], the IC50 is 4.3 nM.

Regarding `COc1ccc(C(CC(=O)O)n2ccc(CCCc3ccc4c(n3)NCCCC4)n2)cn1` (single isomer, unassigned) [Example 102, 3-(6-methoxypyridin-3-yl)-3-(3-(3-(6,7,8,9-tetrahydro-5H-pyrido[2,3-b]azepin-2-yl)propyl)-1H-pyrazol-1-yl)propanoic acid], the IC50 was 150 nM.

As for `COc1ncc(C(CC(=O)O)n2ccc(CCCc3ccc4c(n3)NCCCC4)n2)cn1` (single isomer, unassigned) [Example 104, 3-(2-methoxypyrimidin-5-yl)-3-(3-(3-(6,7,8,9-tetrahydro-5H-pyrido[2,3-b]azepin-2-yl)propyl)-1H-pyrazol-1-yl)propanoic acid], the IC50 was 10 nM.

Take `COc1ncc(C(CC(=O)O)n2ccc(CCCc3ccc4c(n3)NCCCC4)n2)cn1` (single isomer, unassigned) [Example 105]: the IC50 stood at 470 nM.

With `COc1ccc(C(CC(=O)O)c2cc(CCCc3ccc4c(n3)NCCC4)[nH]n2)cc1F` (single isomer, unassigned) [Example 115, 3-(3-Fluoro-4-methoxyphenyl)-3-(5-(3-(5,6,7,8-tetrahydro-1,8-naphthyridin-2-yl)propyl)-1H-pyrazol-3-yl)propanoic acid], the IC50 worked out at 97 nM.

Take `CN(C)C(=O)c1cccc(C(CC(=O)O)c2nc(CCCCc3ccc4c(n3)NCCC4)cs2)c1` (single isomer, unassigned) [Example 117, 3-(3-(dimethylcarbamoyl)phenyl)-3-(4-(4-(5,6,7,8-tetrahydro-1,8-naphthyridin-2-yl)butyl)thiazol-2-yl)propanoic acid]: the IC50 amounted to 76 nM.

As for `CN(C)C(=O)c1cccc(C(CC(=O)O)c2nc(CCCCc3ccc4c(n3)NCCC4)cs2)c1` (single isomer, unassigned) [Example 118, 3-(3-(dimethylcarbamoyl)phenyl)-3-(4-(4-(5,6,7,8-tetrahydro-1,8-naphthyridin-2-yl)butyl)thiazol-2-yl)propanoic acid], the IC50 was determined as 1.9 nM.

As to `O=C(O)CC(c1ccc2nccnc2c1)c1nc(CCCCc2ccc3c(n2)NCCC3)cs1` (single isomer, unassigned) [Example 119, 3-(quinoxalin-6-yl)-3-(4-(4-(5,6,7,8-tetrahydro-1,8-naphthyridin-2-yl)butyl)thiazol-2-yl)propanoic acid], the IC50 came out at 99 nM.

Turning to `O=C(O)CC(c1ccc2nccnc2c1)c1nc(CCCCc2ccc3c(n2)NCCC3)cs1` (single isomer, unassigned) [Example 120, 3-(quinoxalin-6-yl)-3-(4-(4-(5,6,7,8-tetrahydro-1,8-naphthyridin-2-yl)butyl)thiazol-2-yl)propanoic acid], the IC50 stood at 14 nM.

Turning to `CN(C)c1ccc(C(CC(=O)O)c2nc(CCCCc3ccc4c(n3)NCCC4)cs2)cn1` (single isomer, unassigned) [Example 121, 3-(6-(dimethylamino)pyridin-3-yl)-3-(4-(4-(5,6,7,8-tetrahydro-1,8-naphthyridin-2-yl)butyl)thiazol-2-yl)propanoic acid], the IC50 was 170 nM.

Regarding `CN(C)c1ccc(C(CC(=O)O)c2nc(CCCCc3ccc4c(n3)NCCC4)cs2)cn1` (single isomer, unassigned) [Example 122, 3-(6-(dimethylamino)pyridin-3-yl)-3-(4-(4-(5,6,7,8-tetrahydro-1,8-naphthyridin-2-yl)butyl)thiazol-2-yl)propanoic acid], the IC50 came out at 3.5 nM.

Regarding `COc1ccc(C(CC(=O)O)c2nc(CCCCc3ccc4c(n3)NCCC4)cs2)cc1OC` (single isomer, unassigned) [Example 123, 3-(3,4-dimethoxyphenyl)-3-(4-(4-(5,6,7,8-tetrahydro-1,8-naphthyridin-2-yl)butyl)thiazol-2-yl)propanoic acid], the concentration for half-maximal inhibition (IC50) came out at 180 nM.

Consider `COc1ccc(C(CC(=O)O)c2nc(CCCCc3ccc4c(n3)NCCC4)cs2)cc1OC` (single isomer, unassigned) [Example 124, 3-(3,4-dimethoxyphenyl)-3-(4-(4-(5,6,7,8-tetrahydro-1,8-naphthyridin-2-yl)butyl)thiazol-2-yl)propanoic acid], for which the IC50 amounted to 2.5 nM.

Consider `O=C(O)CC(c1cccc(N2CCOCC2)c1)c1nc(CCCCc2ccc3c(n2)NCCC3)cs1` (single isomer, unassigned) [Example 125, 3-(3-morpholinophenyl)-3-(4-(4-(5,6,7,8-tetrahydro-1,8-naphthyridin-2-yl)butyl)thiazol-2-yl)propanoic acid], for which the 50% inhibitory concentration (IC50) turned out to be 180 nM.

For `O=C(O)CC(c1cccc(N2CCOCC2)c1)c1nc(CCCCc2ccc3c(n2)NCCC3)cs1` (single isomer, unassigned) [Example 126, 3-(3-morpholinophenyl)-3-(4-(4-(5,6,7,8-tetrahydro-1,8-naphthyridin-2-yl)butyl)thiazol-2-yl)propanoic acid], the IC50 is 6 nM.

For the molecule `CN(C)C(=O)c1ccc(C(CC(=O)O)c2nc(CCCCc3ccc4c(n3)NCCC4)cs2)cc1` (single isomer, unassigned) [Example 127, 3-(4-(dimethylcarbamoyl)phenyl)-3-(4-(4-(5,6,7,8-tetrahydro-1,8-naphthyridin-2-yl)butyl)thiazol-2-yl)propanoic acid], the IC50 was determined as 60 nM.

Consider `CN(C)C(=O)c1ccc(C(CC(=O)O)c2nc(CCCCc3ccc4c(n3)NCCC4)cs2)cc1` (single isomer, unassigned) [Example 128, 3-(4-(dimethylcarbamoyl)phenyl)-3-(4-(4-(5,6,7,8-tetrahydro-1,8-naphthyridin-2-yl)butyl)thiazol-2-yl)propanoic acid], for which the IC50 is 4.3 nM.

With `CCOc1ncc(C(CC(=O)O)c2nc(CCCCc3ccc4c(n3)NCCC4)cs2)cn1` (single isomer, unassigned) [Example 129, 3-(2-ethoxypyrimidin-5-yl)-3-(4-(4-(5,6,7,8-tetrahydro-1,8-naphthyridin-2-yl)butyl)thiazol-2-yl)propanoic acid], the IC50 stood at 28 nM.

The values are drawn from patent publication US11884661B2, “3-substituted propionic acids as αV integrin inhibitors” (BRISTOL-MYERS SQUIBB COMPANY, priority 2016, dated 2024).
